Measurements: patent publication US20260242398A1, “BENZOPYRIMIDIN-4(3H)-ONES AS PI3K INHIBITORS” (OnKure, Inc., priority 2022, published 2026)
Read-outs that look alike come from different tables or passages of the source.

Legend:
[1] = test system: phosphorylation of AKT (pAKT) in SKBR3 cells express WT PI3Ka; assay: In vitro cell pAKT (Ser473) HTRF, SKBR3 cells; type: cell-based; conditions: inhibition of pAKT
In short: (§1)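 T47D (PI3Kα H1047R; RPMI, 10% FBS, insulin) or SKBR3 (WT PI3Kα; McCoy's 5a, 10% FBS) cells, 5000/well, are treated with 10-point compound dilutions for 6 h at 37° C. Lysates are read for pAKT Ser473 by HTRF. Inhibition is normalised to DMSO (0%) and 10 μM alpelisib (100%), and IC50 comes from a four-parameter fit.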

[2] = test system: T47D cells expressing mutant PI3Ka (H1047R); assay: In vitro cell proliferation (CellTiter-Glo, 72 hours), T47D cells; type: cell-based; conditions: inhibition of proliferation, read-out: Avg T-47D EC50
In short: (§2)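 1,500 cells/well (T47D in RPMI/10% FBS/insulin 0.2 units/mL; SKBR3 in McCoys 5a/10% FBS) plated onto 10-point compound dilutions and grown 72 h at 37 °C, 5% CO2; CellTiter-Glo luminescence. Inhibition scaled between 0.1% DMSO and 10 uM alpelisib; EC50 from four-parameter logistic fit.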

[3] = test system: phosphorylation of AKT (pAKT) in T47D cells expressing mutant PI3Ka (H1047R); assay: In vitro cell pAKT (Ser473) HTRF, T47D cells; type: cell-based; conditions: inhibition of pAKT, read-out: Avg T-47D IC50
In short: as §1

[4] = Mouse pharmacokinetics, single IV or PO dose, plasma LC/MS/MS; type: in vivo; conditions: CD1 mice; for PK-Mouse: PO F: PO 10 mg/kg vs IV 1 mg/kg; for AUC(0-t) / clearance: mouse, plasma; for clearance: read-out: PK-Mouse: IV Cl
Protocol: CD1 mice were dosed with a single IV or PO dose, followed by serial sampling of plasma at 0.0833 (IV only), 0.25, 0.5, 1, 2, 4, 8, 24 hours post dose. Desired serial concentrations of working solutions were achieved by diluting stock solution of analyte with 50% acetonitrile in water solution. 10 μL of working solutions (0.5, 1, 2, 5, 10, 50, 100, 500, 1000 ng/mL) were added to 10 μL of the blank Female CD1 Mouse plasma to achieve calibration standards of 0.5~1000 ng/mL (0.5, 1, 2, 5, 10, 50, 100, 500, 1000 ng/mL) in a total volume of […]. Five quality control samples at 1 ng/mL, 2 ng/mL, 5 ng/mL, 50 ng/mL and 800 ng/mL for plasma were prepared independently of those used for the calibration curves. These QC samples were prepared on the day of analysis in the same way as calibration standards. 20 μL standards, 20 μL QC samples and 20 μL unknown samples (10 μL plasma with 10 μL blank solution) were added to 200 μL of acetonitrile containing IS mixture for precipitating protein respectively. Then the samples were vortexed for 30 s. after centrifugation at 4° Celsius, 4000 rpm for 15 min. The supernatant was diluted with water at a ratio of 1:2 (V/V, 1:2), Then 5 μL of diluted supernatant was injected into the LC/MS/MS system for quantitative analysis.

[5] = test system: SKBR3 cells express WT PI3Ka; assay: In vitro cell proliferation (CellTiter-Glo, 72 hours), SKBR3 cells; type: cell-based; conditions: inhibition of proliferation
In short: as §2

[6] = IV 1 mg/kg, solution in 20% PEG400/20% PG/60% of 20% HPBCD solution in water, read-out: PK-Mouse: IV AUC last
[7] = IV 1 mg/kg, solution in 20% PEG400/20% PG/60% of 20% HPBCD solution in water
[8] = PO 10 mg/kg, suspension in 30% SBEβCD in water, read-out: PK-Mouse PO AUC last

Row | Structure (SMILES) | IC50 ([1]; Homo sapiens, SK-BR-3, 6 h) [µM] | EC50 [2] [µM] | IC50 ([3]; 6 hour) [µM] | PK-Mouse: PO F [4] [%] | AUC(0-t) [4, 6] [ng·h/mL] | clearance [4, 7] [mL/min/kg] | AUC(0-t) [4, 8] [ng·h/mL] | EC50 ([5]; Homo sapiens, SK-BR-3, 72 h) [µM] | IC50 ([1]; 6 hour) [µM] | EC50 [5] [µM] | EC50 ([2]; Homo sapiens, T47D, 72 h) [µM] | IC50 ([3]; Homo sapiens, T47D, 6 h) [µM]
1 | Cc1cc(C(C)Nc2ccc(F)cc2C(=O)O)c2nc(N3CCC(C)(C)CC3)n(C)c(=O)c2c1 (single isomer, unassigned) [Example 29, 2-((1-(2-(4,4-dimethylpiperidin-1-yl)-3,6-dimethyl-4-oxo-3,4-dihydroquinazolin-8-yl)ethyl)amino)-5-fluorobenzoic acid] | > 15 | 0.001 to 0.5 | 0.001 to 1 | 61 | 1740 | 8.7 | 10700 | 2 to 15 |  |  |  | 
2 | CC(Nc1ccccc1C(=O)O)c1cc(F)cc2c(=O)n(C)c(N3CCN(CC(F)(F)F)CC3)nc12 (single isomer, unassigned) [Example 35, 2-((1-(6-fluoro-3-methyl-4-oxo-2-(4-(2,2,2-trifluoroethyl)piperazin-1-yl)-3,4-dihydroquinazolin-8-yl)ethyl)amino)benzoic acid] | > 15 | 0.5 to 2 | 0.001 to 1 | 187 | 242 | 59.5 | 4520 | > 15 |  |  |  | 
3 | Cc1cc(C(C)Nc2ccccc2C(=O)O)c2nc(NC[C@@H](C)c3ccccc3)n(C)c(=O)c2c1 (single isomer, unassigned) [Example 48] |  | 2 to 15 | > 15 |  |  |  |  |  | > 15 | 2 to 15 |  | 
4 | Cc1cc(C(C)Nc2ccccc2C(=O)O)c2nc(N3CCC(C)(C)CC3)n(C3CC3)c(=O)c2c1 (single isomer, unassigned) [Example 49, 2-((1-(3-cyclopropyl-2-(4,4-dimethylpiperidin-1-yl)-6-methyl-4-oxo-3,4-dihydroquinazolin-8-yl)ethyl)amino)benzoic acid] | > 15 |  | 1 to 5 |  |  |  |  |  |  | 2 to 15 | 2 to 15 | 
5 | Cc1cc(C(C)Nc2ccccc2C(=O)O)c2nc(N3CCC(C)(C)CC3)n(C3CC3)c(=O)c2c1 (single isomer, unassigned) [Example 50, 2-((1-(3-cyclopropyl-2-(4,4-dimethylpiperidin-1-yl)-6-methyl-4-oxo-3,4-dihydroquinazolin-8-yl)ethyl)amino)benzoic acid] |  | 2 to 15 | > 15 |  |  |  |  |  | > 15 | > 15 |  | 
6 | Cc1cc(C(C)Nc2ccccc2C(=O)O)c2nc(N3CCC(C)(C)CC3)n(CF)c(=O)c2c1 (single isomer, unassigned) [Example 51, 2-((1-(2-(4,4-dimethylpiperidin-1-yl)-3-(fluoromethyl)-6-methyl-4-oxo-3,4-dihydroquinazolin-8-yl)ethyl)amino)benzoic acid] | > 15 |  | 5 to 15 |  |  |  |  |  |  | 2 to 15 | 2 to 15 | 
7 | Cc1cc(C(C)Nc2ccccc2C(=O)O)c2nc(N3CCC(C)(C)CC3)n(CF)c(=O)c2c1 (single isomer, unassigned) [Example 52, 2-((1-(2-(4,4-dimethylpiperidin-1-yl)-3-(fluoromethyl)-6-methyl-4-oxo-3,4-dihydroquinazolin-8-yl)ethyl)amino)benzoic acid] |  | 2 to 15 | > 15 |  |  |  |  |  | > 15 | > 15 |  | 
8 | Cc1cc(C(C)Nc2cccc(F)c2C(=O)O)c2nc(N3CCC(C)(C)CC3)n(C)c(=O)c2c1 (stereo not shown) [Example 28, 2-((1-(2-(4,4-dimethylpiperidin-1-yl)-3,6-dimethyl-4-oxo-3,4-dihydroquinazolin-8-yl)ethyl)amino)-6-fluorobenzoic acid] | > 15 |  |  |  |  |  |  | > 15 |  |  | 2 to 15 | 0.001 to 1
